Laboratory results from a compilation of properties of binary mixtures (doi:10.1007/s10953-022-01154-2).

Experiment: xn = mol fraction of the nth substance listed
Details: 101.3 kPa

CC[n+]1ccn(C)c1.N#C[S-] + CC1COC(=O)O1
Details	electrical conductivity [S/m]	viscosity [mPa·s]
293.15 K, x1 = 0.0989	1.49	4.213
293.15 K, x1 = 0.4	2.17	9.86
293.15 K, x1 = 0.499	2.06	12.27
293.15 K, x1 = 0.599	1.96	15.04
293.15 K, x1 = 0.7045	1.89	18.06
293.15 K, x1 = 0.796	1.77	20.66
293.15 K, x1 = 0.8942	1.66	23.53
293.15 K, x1 = 1	1.58	26.76
298.15 K, x1 = 0.2045	2.28	5.073
298.15 K, x1 = 0.2984	2.45	6.601
298.15 K, x1 = 0.499	2.25	10.59
298.15 K, x1 = 0.796	1.97	17.73
298.15 K, x1 = 0.8942	1.86	20.22
298.15 K, x1 = 1	1.75	23.11
303.15 K, x1 = 0.0989	1.86	3.259
303.15 K, x1 = 0.2045	2.48	4.415
303.15 K, x1 = 0.2984	2.67	5.742
303.15 K, x1 = 0.4	2.58	7.328
303.15 K, x1 = 0.499	2.47	9.17
303.15 K, x1 = 0.599	2.38	11.19
303.15 K, x1 = 0.7045	2.28	13.39
303.15 K, x1 = 0.796	2.19	15.34
303.15 K, x1 = 0.8942	2.06	17.54
303.15 K, x1 = 1	1.95	20.12
308.15 K, x1 = 0.0989	2.09	2.877
308.15 K, x1 = 0.2045	2.7	3.859
308.15 K, x1 = 0.2984	2.92	4.972
308.15 K, x1 = 0.4	2.82	6.341
308.15 K, x1 = 0.499	2.71	7.916
308.15 K, x1 = 0.599	2.62	9.67
308.15 K, x1 = 0.7045	2.52	11.57
308.15 K, x1 = 0.796	2.42	13.28
308.15 K, x1 = 0.8942	2.29	15.21
308.15 K, x1 = 1	2.17	17.5
313.15 K, x1 = 0.0989	2.32	2.569
313.15 K, x1 = 0.2045	2.94	3.39
313.15 K, x1 = 0.2984	3.17	4.367
313.15 K, x1 = 0.4	3.07	5.56
313.15 K, x1 = 0.499	2.96	6.909
313.15 K, x1 = 0.599	2.87	8.432
313.15 K, x1 = 0.796	2.67	11.58
313.15 K, x1 = 0.8942	2.52	13.32
313.15 K, x1 = 1	2.39	15.32
318.15 K, x1 = 0.0989	2.55	2.299
318.15 K, x1 = 0.4	3.33	4.83
318.15 K, x1 = 0.499	3.22	5.988
318.15 K, x1 = 0.796	2.92	10.18
318.15 K, x1 = 1	2.64	13.45
323.15 K, x1 = 0.0989	2.8	2.074
323.15 K, x1 = 0.2984	3.72	3.34
323.15 K, x1 = 0.4	3.6	4.247
323.15 K, x1 = 0.7045	3.28	7.629
323.15 K, x1 = 0.796	3.18	8.83
323.15 K, x1 = 0.8942	3.03	10.15
323.15 K, x1 = 1	2.89	11.78
328.15 K, x1 = 0.0989	3.05	1.878
328.15 K, x1 = 0.2045	3.72	2.36
328.15 K, x1 = 0.2984	4	2.943
328.15 K, x1 = 0.4	3.88	3.72
328.15 K, x1 = 0.7045	3.55	6.692
328.15 K, x1 = 1	3.15	10.37
333.15 K, x1 = 0.2045	4.02	2.095
333.15 K, x1 = 0.2984	4.29	2.593
333.15 K, x1 = 0.4	4.18	3.284
333.15 K, x1 = 0.499	4.06	4.06
333.15 K, x1 = 0.599	3.96	4.939
333.15 K, x1 = 0.7045	3.84	5.885
333.15 K, x1 = 0.796	3.74	6.792
333.15 K, x1 = 0.8942	3.6	7.876
333.15 K, x1 = 1	3.43	9.21
338.15 K, x1 = 0.2045	4.34	–
338.15 K, x1 = 0.2984	4.61	–
338.15 K, x1 = 0.4	4.47	–
338.15 K, x1 = 0.499	4.35	–
338.15 K, x1 = 0.599	4.26	–
338.15 K, x1 = 0.7045	4.13	–
338.15 K, x1 = 0.796	4.02	–
338.15 K, x1 = 0.8942	3.89	–
338.15 K, x1 = 1	3.72	–
338.18 K, x1 = 0.0989	–	1.557
338.18 K, x1 = 0.2045	–	1.89
338.18 K, x1 = 0.4	–	2.891
338.18 K, x1 = 0.499	–	3.563
338.18 K, x1 = 0.599	–	4.34
338.18 K, x1 = 0.7045	–	5.225
338.18 K, x1 = 0.796	–	6.089
338.18 K, x1 = 0.8942	–	7.068
338.18 K, x1 = 1	–	8.1
343.15 K, x1 = 0.0989	3.88	1.432
343.15 K, x1 = 0.2045	4.67	1.699
343.15 K, x1 = 0.2984	4.92	2.057
343.15 K, x1 = 0.599	4.57	3.859
343.15 K, x1 = 0.7045	4.44	4.651
343.15 K, x1 = 0.796	4.32	5.421
343.15 K, x1 = 0.8942	4.2	6.296
